Source: US20230413822A1, “ORAL CANINE FEED AND METHODS FOR C[…] INFESTATIONS IN A CANINE” (In the Bowl Animal Health, Inc., priority 2021, published 2023)
Values joined by “and” are separate entries in the source; they are usually repeats but may differ in a detail not shown here. Equal entries are not always repeated.

Experiments:
[1] = Plasma concentration of mivorilaner in dogs given an oral liquid formulation daily (Example 1); type: in vivo; conditions: individual canines, Day 37, 0.75 mg/kg/day oral, days 0-29, 0.75 mg/kg/day
Source text: Methods: A pool of 14 dogs are to be preliminarily infested with ˜100 unfed adult C. felis in order to produce dogs that can suitably sustain a reliable infestation rate, defined as approximately 50% fleas being live at the end of a 48-hour period. The 12 dogs with the highest live flea counts are to be selected for inclusion in the study. The dogs are to be divided into a control group and a treatment group.
(§1) The dogs are to be housed individually during the study period and are to be fed a commercial dry dog food ration with ad libitum access to water.
Each dog in the treatment group is to receive by mouth a liquid formulation of isoxazoline. The dosage of 0.75 mg/kg is to be administered to the dogs on each of days 0-29.
Dogs in the control group are not to receive isoxazoline or any other tick control treatment. Each dog in the treatment group is to be offered its daily ration (dry food) and the individual doses of liquid formulation are to be administered after the individual dog has eaten at least 25% of its total daily ration. After receiving the dose of isoxazoline, the dogs are to be allowed to continue eating. This mimics incorporating the isoxazoline in feed. Each dog in the treatment group and the control group is to be experimentally infested with 50 adult ticks on test days 5, 12, 19, 28 and 35. Comb counts for live and moribund attached ticks are to be conducted on days 7, 14, 21, 30 and 37.

[2] = Plasma concentration of mivorilaner in dogs at various daily oral doses (Example 2); type: in vivo; conditions: average plasma
Source text: Methods: A pool of 46 dogs are to be preliminarily infested with ˜50 unfed adult R. sanguineus ticks in order to produce dogs that can suitably sustain a reliable infestation rate, defined as approximately 25% of attached ticks being live at the end of a 48-hour period. The 40 dogs with the highest live attached tick counts are to be selected for inclusion in the study. The dogs are to be randomly assigned to one of a control group and 4 treatment groups.
as §1
Each dog in a treatment group (test groups 2-5) is to receive by mouth a liquid formulation of isoxazoline.
Dogs in the control group are not to receive isoxazoline or any other tick control treatment. Each dog in the treatment group is to be offered its daily ration (dry food) and the individual doses of liquid formulation are to be administered after the individual dog has eaten at least 25% of its total daily ration. After receiving the dose of isoxazoline, the dogs are to be allowed to continue eating. Each dog in treatment groups 3-5 and the control group is to be experimentally infested with 50 adult ticks on test days −2, 5, 12, 19, 28, 35 and 42. Dogs in group 2 are to be infested with 50 adult ticks on test days 19, 28 and 35. Comb counts for live adult ticks are to be conducted on days 2, 7, 14, 21, 30, 37 and 44.
Sample results of the average plasma concentration of isoxazoline in a canine's blood at different dosage levels of mivorilaner are shown in TABLE 3 and FIG. 4.

O=C(CNC(=O)c1sc(C2=NO[C@@](c3cc(Cl)c(F)c(Cl)c3)(C(F)(F)F)C2)c2c1CCC2)NCC(F)F [Mivorilaner, 3-[(5S)-5-(3,5-dichloro-4-fluorophenyl)-5-(trifluoromethyl)-4,5-dihydroisoxazol-3-yl]-N-[2-[(2,2-difluoroethyl)amino]-2-oxoethyl]-5,6-dihydro-4H-cyclopenta[c]thiophene-1-carboxamide]
Mivorilaner Concentration [1]: 2070 ng/mL and 2410 ng/mL and 1880 ng/mL and 2010 ng/mL
Mivorilaner Concentration ([2]; Group 2 (0.125 mg/kg/day) oral fed, 72 hours after initial dose): 135.83 ng/mL
Mivorilaner Concentration ([2]; Group 2 (0.125 mg/kg/day) oral fed, 120 hours after initial dose): 212.63 ng/mL
Mivorilaner Concentration ([2]; Group 2 (0.125 mg/kg/day) oral fed, 168 hours after initial dose): 243.63 ng/mL
Mivorilaner Concentration ([2]; Group 2 (0.125 mg/kg/day) oral fed, 336 hours after initial dose): 383.75 ng/mL
Mivorilaner Concentration ([2]; Group 2 (0.125 mg/kg/day) oral fed, 504 hours after initial dose): 404.13 ng/mL
Mivorilaner Concentration ([2]; Group 2 (0.125 mg/kg/day) oral fed, 720 hours after initial dose): 419.50 ng/mL
Mivorilaner Concentration ([2]; Group 2 (0.125 mg/kg/day) oral fed, 888 hours after initial dose): 447.50 ng/mL
Mivorilaner Concentration ([2]; Group 2 (0.125 mg/kg/day) oral fed, 1056 hours after initial dose): 428.38 ng/mL
Mivorilaner Concentration ([2]; Group 2 (0.125 mg/kg/day) oral fed, 1224 hours after initial dose): 485.50 ng/mL
Mivorilaner Concentration ([2]; Group 2 (0.125 mg/kg/day) oral fed, 1440 hours after initial dose): 897.50 ng/mL
Mivorilaner Concentration ([2]; Group 3 (0.25 mg/kg/day) oral fed, 72 hours after initial dose): 283.13 ng/mL
Mivorilaner Concentration ([2]; Group 3 (0.25 mg/kg/day) oral fed, 120 hours after initial dose): 450.00 ng/mL
Mivorilaner Concentration ([2]; Group 3 (0.25 mg/kg/day) oral fed, 168 hours after initial dose): 579.13 ng/mL
Mivorilaner Concentration ([2]; Group 3 (0.25 mg/kg/day) oral fed, 336 hours after initial dose): 883.38 ng/mL
Mivorilaner Concentration ([2]; Group 3 (0.25 mg/kg/day) oral fed, 504 hours after initial dose): 877.75 ng/mL
Mivorilaner Concentration ([2]; Group 3 (0.25 mg/kg/day) oral fed, 720 hours after initial dose): 1015.63 ng/mL
Mivorilaner Concentration ([2]; Group 3 (0.25 mg/kg/day) oral fed, 888 hours after initial dose): 1003.88 ng/mL
Mivorilaner Concentration ([2]; Group 3 (0.25 mg/kg/day) oral fed, 1056 hours after initial dose): 945.13 ng/mL
Mivorilaner Concentration ([2]; Group 3 (0.25 mg/kg/day) oral fed, 1224 hours after initial dose): 1040.88 ng/mL
Mivorilaner Concentration ([2]; Group 3 (0.25 mg/kg/day) oral fed, 1440 hours after initial dose): 999.13 ng/mL
Mivorilaner Concentration ([2]; Group 4 (0.5 mg/kg/day) oral fed, 72 hours after initial dose): 474.25 ng/mL
Mivorilaner Concentration ([2]; Group 4 (0.5 mg/kg/day) oral fed, 120 hours after initial dose): 763.13 ng/mL
Mivorilaner Concentration ([2]; Group 4 (0.5 mg/kg/day) oral fed, 168 hours after initial dose): 888.00 ng/mL
Mivorilaner Concentration ([2]; Group 4 (0.5 mg/kg/day) oral fed, 336 hours after initial dose): 1457.88 ng/mL
Mivorilaner Concentration ([2]; Group 4 (0.5 mg/kg/day) oral fed, 504 hours after initial dose): 1633.25 ng/mL
Mivorilaner Concentration ([2]; Group 4 (0.5 mg/kg/day) oral fed, 720 hours after initial dose): 1873.75 ng/mL
Mivorilaner Concentration ([2]; Group 4 (0.5 mg/kg/day) oral fed, 888 hours after initial dose): 1986.25 ng/mL
Mivorilaner Concentration ([2]; Group 4 (0.5 mg/kg/day) oral fed, 1056 hours after initial dose): 2012.50 ng/mL
Mivorilaner Concentration ([2]; Group 4 (0.5 mg/kg/day) oral fed, 1224 hours after initial dose): 2318.75 ng/mL
Mivorilaner Concentration ([2]; Group 4 (0.5 mg/kg/day) oral fed, 1440 hours after initial dose): 2298.75 ng/mL
Mivorilaner Concentration ([2]; Group 5 (1.0 mg/kg/day) oral fed, 72 hours after initial dose): 951.25 ng/mL
Mivorilaner Concentration ([2]; Group 5 (1.0 mg/kg/day) oral fed, 120 hours after initial dose): 1510.00 ng/mL
Mivorilaner Concentration ([2]; Group 5 (1.0 mg/kg/day) oral fed, 168 hours after initial dose): 1793.75 ng/mL
Mivorilaner Concentration ([2]; Group 5 (1.0 mg/kg/day) oral fed, 336 hours after initial dose): 2691.25 ng/mL
Mivorilaner Concentration ([2]; Group 5 (1.0 mg/kg/day) oral fed, 504 hours after initial dose): 3016.25 ng/mL
Mivorilaner Concentration ([2]; Group 5 (1.0 mg/kg/day) oral fed, 720 hours after initial dose): 3756.25 ng/mL
Mivorilaner Concentration ([2]; Group 5 (1.0 mg/kg/day) oral fed, 888 hours after initial dose): 3861.25 ng/mL
Mivorilaner Concentration ([2]; Group 5 (1.0 mg/kg/day) oral fed, 1056 hours after initial dose): 4263.75 ng/mL
Mivorilaner Concentration ([2]; Group 5 (1.0 mg/kg/day) oral fed, 1224 hours after initial dose): 4838.75 ng/mL
Mivorilaner Concentration ([2]; Group 5 (1.0 mg/kg/day) oral fed, 1440 hours after initial dose): 4142.50 ng/mL
